Results from patent US20090004118A1, “Multifunctional Nanoparticle Conjugates And Their Use” (priority 2004, published 2009).

Experiments:
[1] = tested on: MCF-10A cells (normal breast cells); assay: MTT cytotoxicity assay, MCF-10A cells; type: cell-based, Human; details: compared to cells treated with Paclitaxel-Heparin-FA
tubulin = assay: Tubulin polymerization assay; details: 10 μM paclitaxel equivalent, absorbance 340 nm, FIG. 3
tumor cell cultures = details: cited from earlier work
factor Xa = assay: Factor Xa chromogenic assay (anti Factor Xa heparin activity); type: biochemical; details: FIG. 2

Compound | IC50 values for inhibition of growth of tumor cell cultures (tumor cell cultures) | also measured
Nc1nc2ncc(CNc3ccc(C(=O)N[C@@H](CCC(=O)O)C(=O)O)cc3)nc2c(=O)[nH]1 [free folate, folic acid] | – | viability of normal cells [1]: relatively low
CC(=O)O[C@H]1C(=O)[C@@]2(C)[C@H]([C@H](OC(=O)c3ccccc3)[C@]3(O)C[C@H](OC(=O)[C@H](O)[C@@H](NC(=O)c4ccccc4)c4ccccc4)C(C)=C1C3(C)C)[C@]1(OC(C)=O)CO[C@@H]1C[C@@H]2O [paclitaxel] | – | ability to induce microtubule assembly (tubulin polymerization) (tubulin): clear increase in absorbance
calicheamicin | low picomolar range | –
dynemicin | low picomolar range | –
esperamicin | low picomolar range | –
heparin | – | bioactivity measured by factor Xa chromogenic assay (factor Xa): 179 IU/mg
